In paper PMC4805251, “Novel Antimicrobial Peptides EeCentrocins 1, 2 and EeStrongylocin 2 from the Edible Sea Urchin Echinus esculentus Have 6-Br-Trp Post-Translational Modifications” (PLoS ONE, 2016):
In brackets after ≈: the same amount, converted by molar mass. Where two headings read alike, the source gives them in different places. Square brackets hold non-standard residues; d marks the D form. Peptide text beside a SMILES is read from it. Trp(6-Br) = N[C@@H](Cc1c[nH]c2cc(Br)ccc12)C(=O)O

Assays:
Format in all cases: cell-based
[1] = system: Candida albicans (ATCC 10231); conditions: for MIC C. albicans: ATCC 10231, 24 h
Experimental: (§1) The synthetic peptides (see section 2.11) were also screened for antifungal activity against Candida albicans (ATCC 10231), Saccharomyces cerevisiae, Rhodotorula sp., Aureobasidium pullulans and Cladosporium sp. The antifungal assay was performed as described previously. Briefly, fungal spores were dissolved in potato dextrose broth (Difco, Lawrence, KS, USA) to a concentration of 4 × 10^5 spores/ml. The spores (50 μl) were inoculated on 96-well Nunclon^TM microtiter plates containing the synthetic peptides (50 μl) dissolved in MQ-H2O. […] MIC was defined as the lowest concentration of peptide giving no visible fungal growth. The negative (growth) control contained medium and fungal solution.
(§2) ACN-phases and SPE eluates were tested with two-fold serial dilutions ranging from 5.0 to 0.005 mg/ml (5.0, 2.5, 1.25, 0.63, 0.31, 0.16, 0.08, 0.04, 0.02, 0.01, 0.005 mg/ml) whereas HPLC-fractions were tested undiluted for antibacterial activity. Pure, native peptides and synthetic peptides (described in section 2.11) were tested for antimicrobial activity in concentrations ranging from 100 to 0.1 μM in two-fold serial dilutions (100, 50, 25, 12.5, 6.25, 3.13, 1.56, 0.78, 0.39, 0.20, 0.10 μM). Antimicrobial assays involving natural peptides (i.e. fractionated natural material) were run only once due to limited quantities, whereas all other assays were run in triplicates.

[2] = system: Saccharomyces cerevisiae; conditions: for MIC S. cerevisiae: 24 h
Experimental: as §1, §2

[3] = system: Aureobasidium pullulans; conditions: for MIC A. pullulans: 24 h
Experimental: as §1, §2

[4] = system: Cladosporium sp.; conditions: for MIC Cladosporium sp.: 24 h
Experimental: as §1, §2

[5] = system: Rhodotorula sp.
Experimental: as §1, §2

[6] = system: P. aeruginosa #2, PA 01 (ATCC 15692, DSM 19880); conditions: for MIC P. aeruginosa #2: ATCC 15692, 24 h
From the text: (§3) Organic phase extract, SPE eluates and HPLC-fractions were screened for antibacterial activity against two strains of Gram-positive and two strains of Gram-negative bacteria; Corynebacterium glutamicum (ATCC 13032), Staphylococcus aureus (ATCC 9144), Pseudomonas aeruginosa #1 (ATCC 27853) and Escherichia coli #1 (ATCC 25922). For extended antimicrobial bioactivity screening, the following bacterial strains were used, three strains of Gram-positive bacteria; S. epidermidis #1 (5179-R1) kindly provided by Holger Rohde, S. epidermidis #2, RP62A (ATCC 35984) and Bacillus subtilis (ATCC 23857) in addition to the Gram-negative P. aeruginosa #2, PA 01 (ATCC 15692, DSM 19880) and E. coli #2, NR 698 (MC4100/ptD4213).
(§4) Cultures stored at -80°C were smeared onto agar plates and cultured for 24 h at 35°C. One colony of each bacterial strain was transferred to 5 ml liquid Müller-Hinton (MH, Difco, Lawrence, KS, USA) medium in a glass tube and left shaking at room temperature overnight at 600 rpm. The cultures of actively growing bacteria (20 μl) were further inoculated in 5 ml MH medium and left shaking for 2 h at room temperature. The antibacterial assays were performed as previously described by. Briefly, the bacterial cultures were diluted with medium to 1.3–1.5 × 10^4 bacteria/ml final concentrations and an aliquot of 50 μl was added to each well in 96-well Nunclon^TM microtiter plates (Nagle Nunc Int., Denmark) preloaded with 50 μl test sample solutions, i.e. extracts, eluates or peptides.
(§5) The test plates were incubated for 24 h at 35°C with optical density (OD595) recorded every hour using an Envision 2103 multilabel reader, controlled by the Wallac Envision manager (PerkinElmer, CT, USA). Antibacterial activity was defined as a sample showing >90% inhibition (as measured by optical density) compared to the negative (growth) controls, consisting of bacteria and water. Oxytetracycline (20 μM) served as a positive (inhibition) control. The minimum inhibitory concentration (MIC) was defined as the lowest concentration of a sample displaying >90% inhibition.
as §2

[7] = system: S. epidermidis #1 (5179-R1); conditions: for MIC S. epidermidis #1: #1 (5179-R1, 24 h)
From the text: as §3, §4, §5, §2

[8] = system: Escherichia coli #1 (ATCC 25922)
From the text: as §3, §4, §5, §2

[9] = system: E. coli #2, NR 698 (MC4100/ptD4213)
From the text: as §3, §4, §5, §2

[10] = system: Pseudomonas aeruginosa #1 (ATCC 27853)
From the text: as §3, §4, §5, §2

[11] = system: S. epidermidis #2, RP62A (ATCC 35984); conditions: for MIC S. epidermidis #2: ATCC 35984, 24 h
From the text: as §3, §4, §5, §2

[12] = system: Bacillus subtilis (ATCC 23857)
From the text: as §3, §4, §5, §2

[13] = system: Staphylococcus aureus (ATCC 9144); conditions: for MIC S. aureus: ATCC 9144, 24 h
From the text: as §3, §4, §5, §2

[14] = system: Corynebacterium glutamicum (ATCC 13032); conditions: for MIC C. glutamicum: ATCC 13032, 24 h
From the text: as §3, §4, §5, §2

[15] = system: Gram-positive and Gram-negative bacteria (tested strains); conditions: 24 h
From the text: as §3, with “(MC4100/ptD4213). […]” for “(MC4100/ptD4213).”
The test plates were incubated for 24 h at 35°C with optical density (OD595) recorded every hour using an Envision 2103 multilabel reader, controlled by the Wallac Envision manager (PerkinElmer, CT, USA). […]
ACN-phases and SPE eluates were tested with two-fold serial dilutions ranging from 5.0 to 0.005 mg/ml (5.0, 2.5, 1.25, 0.63, 0.31, 0.16, 0.08, 0.04, 0.02, 0.01, 0.005 mg/ml) whereas HPLC-fractions were tested undiluted for antibacterial activity. […] Antimicrobial assays involving natural peptides (i.e. fractionated natural material) were run only once due to limited quantities, whereas all other assays were run in triplicates.

CC[C@H](C)[C@H](NC(=O)[C@@H](N)CC(=O)O)C(=O)NCC(=O)N[C@@H](CCCCN)C(=O)N[C@@H](Cc1ccc(O)cc1)C(=O)N[C@@H](CS)C(=O)NCC(=O)N[C@@H](Cc1ccc(O)cc1)C(=O)N[C@@H](C)C(=O)N[C@@H](Cc1c[nH]cn1)C(=O)N[C@@H](C)C(=O)N[C@@H](CC(C)C)C(=O)N[C@@H](CC(N)=O)C(=O)O (stereo in doubt) [EeCentrocin 1 LC]
MIC C. albicans [1]: >100 µM | MIC S. cerevisiae [2]: >100 µM | MIC A. pullulans [3]: >100 µM | MIC Cladosporium sp. [4]: >100 µM | MIC Rhodotorula sp. ([5]; potato dextrose broth, 24 h at room temperature, visual, no visible fungal growth, value of Table 2, triplicates): >100 µM | MIC P. aeruginosa #2 [6]: >100 µM | MIC S. epidermidis #1 [7]: >100 µM | MIC E. coli #1 ([8]; ATCC 25922, 24 h): >100 µM | MIC E. coli #2 ([9]; MH medium, 24 h at 35°C, OD595, >90% inhibition, value of Table 2, triplicates): >100 µM | MIC P. aeruginosa #1 ([10]; ATCC 27853, 24 h): >100 µM | MIC S. epidermidis #2 [11]: >100 µM | MIC B. subtilis ([12]; ATCC 23857, 24 h): >100 µM | MIC S. aureus [13]: >100 µM | MIC C. glutamicum [14]: >100 µM

CC(C)C[C@H](NC(=O)[C@H](C)NC(=O)CNC(=O)[C@H](CS)NC(=O)[C@H](C)NC(=O)[C@H](CCCCN)NC(=O)[C@H](CO)NC(=O)[C@H](C)NC(=O)[C@H](Cc1ccccc1)NC(=O)CNC(=O)[C@H](C)NC(=O)[C@@H](NC(=O)[C@H](CCCCN)NC(=O)[C@H](CCCNC(=N)N)NC(=O)CNC(=O)[C@H](C)NC(=O)[C@H](CC(N)=O)NC(=O)[C@H](CCCNC(=N)N)NC(=O)[C@@H](NC(=O)[C@H](CCCCN)NC(=O)[C@H](CC(=O)O)NC(=O)[C@@H](NC(=O)[C@@H](NC(=O)[C@H](CCCNC(=N)N)NC(=O)[C@H](CCCNC(=N)N)NC(=O)[C@H](Cc1c[nH]c2cc(Br)ccc12)NC(=O)[C@H](Cc1c[nH]c2cc(Br)ccc12)NC(=O)CN)[C@@H](C)O)C(C)C)C(C)C)C(C)C)C(=O)NCC(=O)N[C@@H](Cc1c[nH]cn1)C(=O)O [EeCentrocin 1 HC-diBr] (H-G[Trp(6-Br)][Trp(6-Br)]RRTVDKVRNAGRKVAGFASKACGALGH-OH)
MIC C. albicans [1]: 50 µM (≈ 171 µg/mL) | MIC raw data C. albicans ([1]; parallel 1 of three): 50 µM (≈ 171 µg/mL) | MIC raw data C. albicans ([1]; parallel 2 of three): 50 µM (≈ 171 µg/mL) | MIC raw data C. albicans ([1]; parallel 3 of three): 50 µM (≈ 171 µg/mL) | MIC S. cerevisiae [2]: >100 µM | MIC raw data S. cerevisiae ([2]; parallel 1 of three): >100 µM | MIC raw data S. cerevisiae ([2]; parallel 2 of three): >100 µM | MIC raw data S. cerevisiae ([2]; parallel 3 of three): >100 µM | MIC A. pullulans [3]: 6.25 µM (≈ 21.3 µg/mL) | MIC raw data A. pullulans ([3]; parallel 1 of three): 6.25 µM (≈ 21.3 µg/mL) | MIC raw data A. pullulans ([3]; parallel 2 of three): 6.25 µM (≈ 21.3 µg/mL) | MIC raw data A. pullulans ([3]; parallel 3 of three): 6.25 µM (≈ 21.3 µg/mL) | MIC Cladosporium sp. [4]: >100 µM | MIC raw data Cladosporium sp. ([4]; parallel 1 of three): >100 µM | MIC raw data Cladosporium sp. ([4]; parallel 2 of three): >100 µM | MIC raw data Cladosporium sp. ([4]; parallel 3 of three): >100 µM | MIC raw data Rhodotorula sp. ([5]; parallel 1 of three): 12.5 µM (≈ 42.7 µg/mL) | MIC raw data Rhodotorula sp. ([5]; parallel 2 of three): 12.5 µM (≈ 42.7 µg/mL) | MIC raw data Rhodotorula sp. ([5]; parallel 3 of three): 12.5 µM (≈ 42.7 µg/mL) | MIC P. aeruginosa #2 [6]: 3.13 µM (≈ 10.7 µg/mL) | MIC raw data P. aeruginosa #2 ([6]; parallel 1 of three): 3.13 µM (≈ 10.7 µg/mL) | MIC raw data P. aeruginosa #2 ([6]; parallel 2 of three): 3.13 µM (≈ 10.7 µg/mL) | MIC raw data P. aeruginosa #2 ([6]; parallel 3 of three): 3.13 µM (≈ 10.7 µg/mL) | MIC S. epidermidis #1 [7]: 6.25 µM (≈ 21.3 µg/mL) | MIC raw data S. epidermidis #1 ([7]; parallel 1 of three): 6.25 µM (≈ 21.3 µg/mL) | MIC raw data S. epidermidis #1 ([7]; parallel 2 of three): 6.25 µM (≈ 21.3 µg/mL) | MIC raw data S. epidermidis #1 ([7]; parallel 3 of three): 6.25 µM (≈ 21.3 µg/mL) | MIC raw data E. coli #1 ([8]; parallel 1 of three): 1.56 µM (≈ 5.33 µg/mL) | MIC raw data E. coli #1 ([8]; parallel 2 of three): 1.56 µM (≈ 5.33 µg/mL) | MIC raw data E. coli #1 ([8]; parallel 3 of three): 0.78 µM (≈ 2.66 µg/mL) | MIC raw data E. coli #2 ([9]; parallel 1 of three): 1.56 µM (≈ 5.33 µg/mL) | MIC raw data E. coli #2 ([9]; parallel 2 of three): 1.56 µM (≈ 5.33 µg/mL) | MIC raw data E. coli #2 ([9]; parallel 3 of three): 0.78 µM (≈ 2.66 µg/mL) | MIC raw data P. aeruginosa #1 ([10]; parallel 1 of three): 1.56 µM (≈ 5.33 µg/mL) | MIC raw data P. aeruginosa #1 ([10]; parallel 2 of three): 1.56 µM (≈ 5.33 µg/mL) | MIC raw data P. aeruginosa #1 ([10]; parallel 3 of three): 1.56 µM (≈ 5.33 µg/mL) | MIC S. epidermidis #2 [11]: 3.13 µM (≈ 10.7 µg/mL) | MIC raw data S. epidermidis #2 ([11]; parallel 1 of three): 3.13 µM (≈ 10.7 µg/mL) | MIC raw data S. epidermidis #2 ([11]; parallel 2 of three): 3.13 µM (≈ 10.7 µg/mL) | MIC raw data S. epidermidis #2 ([11]; parallel 3 of three): 3.13 µM (≈ 10.7 µg/mL) | MIC raw data B. subtilis ([12]; parallel 1 of three): 1.56 µM (≈ 5.33 µg/mL) | MIC raw data B. subtilis ([12]; parallel 2 of three): 1.56 µM (≈ 5.33 µg/mL) | MIC raw data B. subtilis ([12]; parallel 3 of three): 0.78 µM (≈ 2.66 µg/mL) | MIC S. aureus [13]: 3.13 µM (≈ 10.7 µg/mL) | MIC raw data S. aureus ([13]; parallel 1 of three): 3.13 µM (≈ 10.7 µg/mL) | MIC raw data S. aureus ([13]; parallel 2 of three): 3.13 µM (≈ 10.7 µg/mL) | MIC raw data S. aureus ([13]; parallel 3 of three): 1.56 µM (≈ 5.33 µg/mL) | MIC C. glutamicum [14]: 0.78 µM (≈ 2.66 µg/mL) | MIC raw data C. glutamicum ([14]; parallel 1 of three): 0.78 µM (≈ 2.66 µg/mL) | MIC raw data C. glutamicum ([14]; parallel 2 of three): 0.78 µM (≈ 2.66 µg/mL) | MIC raw data C. glutamicum ([14]; parallel 3 of three): 0.39 µM (≈ 1.33 µg/mL) | MIC range towards bacteria [15]: 0.78 to 6.25 µM
